Patent publication US8148391B2 (Cephalon, Inc., priority 2006, dated 2012)
Like-named read-outs stand apart in the source and are kept apart here. Values belong to the molecule of their own block, whether it stands above or below them.

Legend:
[1] = target: T1, baculovirus-expressed ALK (Homo sapiens, UniProt Q9UM73); experiment: ALK Kinase Assay (ELISA-type, time-resolved fluorescence); format: biochemical
T1 construct: host or cells: baculovirus expression system
Summary of the method: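 Plates coated with phospholipase C-γ substrate (10 μg/mL in TBS); reaction started with 30 ng/ml ALK and run 15 min at 37° C. Phosphorylated substrate detected with Eu-N1-labeled PT66 antibody. IC50 from sigmoidal variable-slope fit of percent inhibition vs log concentration.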

[2] = target: T2, c-Met (cytoplasmic domain) (Homo sapiens, UniProt P08581); experiment: c-Met Kinase Assay (same methods as for ALK, with modifications); format: biochemical
T2 construct: 10 ng/mL c-Met (cytoplasmic domain, Invitrogen Corporation #PV3143); purchased Invitrogen Corporation PV3143
T2 sequence (P08581 956-1390 limits assumed): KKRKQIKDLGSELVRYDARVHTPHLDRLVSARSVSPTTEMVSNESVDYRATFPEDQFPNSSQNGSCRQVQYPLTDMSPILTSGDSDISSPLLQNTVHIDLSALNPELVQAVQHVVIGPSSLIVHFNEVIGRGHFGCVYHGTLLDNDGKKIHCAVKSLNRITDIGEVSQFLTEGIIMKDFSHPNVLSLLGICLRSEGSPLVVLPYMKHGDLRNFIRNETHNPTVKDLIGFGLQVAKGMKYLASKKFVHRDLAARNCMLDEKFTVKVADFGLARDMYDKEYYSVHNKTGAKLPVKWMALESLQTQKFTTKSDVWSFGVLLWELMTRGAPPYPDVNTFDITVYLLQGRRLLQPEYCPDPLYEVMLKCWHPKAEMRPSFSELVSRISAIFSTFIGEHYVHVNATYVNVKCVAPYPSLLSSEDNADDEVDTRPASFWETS
Summary of the method: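 Plates were coated with phospholipase C-γ substrate (10 μg/mL) in TBS, and the reaction was started with 10 ng/mL c-Met cytoplasmic domain and run 15 min at 37 °C. Phosphoproduct was detected with Eu-N1-labelled PT66 antibody. IC50 came from a variable-slope sigmoidal fit of percent inhibition vs log concentration.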

[3] = 1 μM ATP (Km level), read-out: ALK Activity (ALK Kinase Inhibition, IC50)
[4] = 1 μM ATP (Km level), read-out: cMet Activity (c-Met Kinase Inhibition, IC50)
[5] = ALK kinase inhibition, 1 μM ATP (Km level), read-out: ALK Activity
[6] = c-Met kinase inhibition, 1 μM ATP (Km level), read-out: cMet Activity
[7] = ALK kinase inhibition, 1 μM ATP, read-out: ALK Activity
[8] = c-Met kinase inhibition, 1 μM ATP, read-out: cMet Activity
[9] = 1 μM ATP (Km level), 30 ng/ml ALK, 37° C., 15 minutes, read-out: ALK Activity (ALK kinase inhibition, IC50 class)
[10] = 1 μM ATP (Km level), 10 ng/mL c-Met, read-out: cMet Activity (c-Met kinase inhibition, IC50 class)

T1 sequence (Q9UM73 19-1620): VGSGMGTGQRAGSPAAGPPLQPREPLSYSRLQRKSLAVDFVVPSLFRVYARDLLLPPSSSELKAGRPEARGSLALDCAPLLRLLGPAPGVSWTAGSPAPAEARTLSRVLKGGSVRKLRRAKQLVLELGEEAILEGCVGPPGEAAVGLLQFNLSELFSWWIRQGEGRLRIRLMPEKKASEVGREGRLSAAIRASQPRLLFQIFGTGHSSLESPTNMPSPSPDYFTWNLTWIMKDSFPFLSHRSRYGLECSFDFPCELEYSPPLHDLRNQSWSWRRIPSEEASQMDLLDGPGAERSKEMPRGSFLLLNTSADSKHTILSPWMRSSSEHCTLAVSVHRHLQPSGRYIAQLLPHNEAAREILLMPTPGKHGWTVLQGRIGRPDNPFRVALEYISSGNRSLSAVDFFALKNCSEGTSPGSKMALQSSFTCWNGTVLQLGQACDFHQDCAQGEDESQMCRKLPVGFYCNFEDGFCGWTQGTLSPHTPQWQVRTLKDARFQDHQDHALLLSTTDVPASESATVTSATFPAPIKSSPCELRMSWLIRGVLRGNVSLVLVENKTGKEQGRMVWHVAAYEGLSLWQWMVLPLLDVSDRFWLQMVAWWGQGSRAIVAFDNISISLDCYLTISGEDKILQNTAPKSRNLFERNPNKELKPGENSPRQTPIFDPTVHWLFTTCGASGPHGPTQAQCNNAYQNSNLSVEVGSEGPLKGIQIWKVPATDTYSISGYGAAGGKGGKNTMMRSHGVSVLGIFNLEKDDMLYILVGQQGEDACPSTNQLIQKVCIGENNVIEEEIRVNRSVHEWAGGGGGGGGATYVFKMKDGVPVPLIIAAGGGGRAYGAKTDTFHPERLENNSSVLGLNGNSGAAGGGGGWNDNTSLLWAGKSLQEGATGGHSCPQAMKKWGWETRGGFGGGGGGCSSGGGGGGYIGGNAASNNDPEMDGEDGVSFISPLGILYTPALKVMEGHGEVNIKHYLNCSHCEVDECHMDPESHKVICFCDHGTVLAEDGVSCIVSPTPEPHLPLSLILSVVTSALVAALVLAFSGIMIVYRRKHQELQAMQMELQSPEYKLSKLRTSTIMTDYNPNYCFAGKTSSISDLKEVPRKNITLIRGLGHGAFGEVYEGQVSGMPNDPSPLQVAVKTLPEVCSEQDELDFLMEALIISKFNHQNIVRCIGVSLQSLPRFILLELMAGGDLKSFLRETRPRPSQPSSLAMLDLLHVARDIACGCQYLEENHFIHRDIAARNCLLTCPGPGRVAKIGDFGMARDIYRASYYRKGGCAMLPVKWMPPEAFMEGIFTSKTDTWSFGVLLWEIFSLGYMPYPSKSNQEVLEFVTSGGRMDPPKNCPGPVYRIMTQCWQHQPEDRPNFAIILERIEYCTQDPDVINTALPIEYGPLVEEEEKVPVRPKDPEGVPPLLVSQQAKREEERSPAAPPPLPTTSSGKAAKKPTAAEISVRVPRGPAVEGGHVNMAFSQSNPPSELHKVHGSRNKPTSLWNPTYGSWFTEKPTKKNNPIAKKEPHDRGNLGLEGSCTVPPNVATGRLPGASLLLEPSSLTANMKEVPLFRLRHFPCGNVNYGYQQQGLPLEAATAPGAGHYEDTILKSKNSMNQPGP

Molecule: COCCN1CCc2cc(Nc3ncc(Cl)c(Nc4ccccc4NS(C)(=O)=O)n3)c(OC)cc2CC1 [Example 242, N-(2-{5-Chloro-2-[8-methoxy-3-(2-methoxy-ethyl)-2,3,4,5-tetrahydro-1H-benzo[d]azepin-7-ylamino]-pyrimidin-4-ylamino}-phenyl)-methanesulfonamide]
IC50 [1, 5]: < 100 nM | IC50 [2, 6]: 1000 to 10000 nM

Molecule: 2-[2-(8-Amino-4H,6H-3,5,10b-triaza-benzo[e]azulen-5-yl)-5-chloro-pyrimidin-4-ylamino]-3-fluoro-N-methyl-benzamide [Example 1467]
IC50 [1, 7]: 1000 to 10000 nM | IC50 [2, 8]: 1000 to 10000 nM

Molecule: NC(=O)[C@@H]1[C@H](Nc2nc(Nc3ccc4c(c3)CCC(NCC(F)F)CC4)ncc2Cl)[C@H]2C=C[C@@H]1C2 (stereo partly drawn) [Example 665, (1S,2S,3R,4R)-3-{5-Chloro-2-[7-(2,2-difluoro-ethylamino)-6,7,8,9-tetrahydro-5H-benzocyclohepten-2-ylamino]-pyrimidin-4-ylamino}-bicyclo[2.2.1]hept-5-ene-2-carboxylic acid amide]
IC50 [1, 3]: < 100 nM | IC50 [2, 4]: 100 to 1000 nM

Molecule: CNS(=O)(=O)c1ccccc1Nc1nc(Nc2ccc3c(c2)C2CC3CN(S(C)(=O)=O)C2)ncc1Cl (centres unmarked) [Example 163, 2-[5-Chloro-2-(10-methanesulfonyl-10-aza-tricyclo[6.3.1.0*2,7*]dodeca-2,4,6-trien-4-ylamino)-pyrimidin-4-ylamino]-N-methyl-benzenesulfonamide]
IC50 [1, 5]: < 100 nM | IC50 [2, 6]: 1000 to 10000 nM

Molecule: CNC(=O)c1cccc(Cl)c1Nc1nc(Nc2ccc3c(c2)C2CCC(C3)N2CCOC)ncc1Cl (centres unmarked) [Example 91, 3-Chloro-2-{5-chloro-2-[12-(2-methoxy-ethyl)-12-aza-tricyclo[7.2.1.0*2,7*]dodeca-2(7),3,5-trien-4-ylamino]-pyrimidin-4-ylamino}-N-methyl-benzamide]
IC50 [1, 5]: 100 to 1000 nM | IC50 [2, 6]: < 100 nM

Molecule: COc1c(Nc2ncc(Cl)c(Nc3ccccc3S(=O)(=O)N3CCC(O)C3)n2)ccc2c1CCC(NCCO)CC2 (centres unmarked) [Example 703, 1-(2-{5-Chloro-2-[7-(2-hydroxy-ethylamino)-1-methoxy-6,7,8,9-tetrahydro-5H-benzocyclohepten-2-ylamino]-pyrimidin-4-ylamino}-benzenesulfonyl)-pyrrolidin-3-ol]
IC50 [1, 3]: < 100 nM | IC50 [2, 4]: 100 to 1000 nM

Molecule: CCN1CCN(CC)c2cc(Nc3ncc(Cl)c(Nc4ccc(OC)cc4-n4cccn4)n3)ccc2C1 [Example 732, 5-Chloro-N(2)-(1,4-diethyl-2,3,4,5-tetrahydro-1H-benzo[e][1,4]diazepin-8-yl)-N(4)-(4-methoxy-2-pyrazol-1-yl-phenyl)-pyrimidine-2,4-diamine]
IC50 [1, 3]: < 100 nM | IC50 [2, 4]: 1000 to 10000 nM

Molecule: CCN1CCN(CC)c2cc(Nc3ncc(Cl)c(Nc4ccccc4NS(C)(=O)=O)n3)ccc2C1=O [Example 423, N-{2-[5-Chloro-2-(1,4-diethyl-5-oxo-2,3,4,5-tetrahydro-1H-benzo[e][1,4]diazepin-8-ylamino)-pyrimidin-4-ylamino]-phenyl}-methanesulfonamide]
IC50 [1, 5]: < 100 nM | IC50 [2, 6]: 100 to 1000 nM

Molecule: COc1c(Nc2ncc(Cl)c(NC3C4C=CC(C4)C3C(N)=O)n2)ccc2c1CCCC(=O)N2C (stereo not drawn) [Example 115, (2-exo, 3-exo)-3-[5-Chloro-2-(6-methoxy-1-methyl-2-oxo-2,3,4,5-tetrahydro-1H-benzo[b]azepin-7-ylamino)-pyrimidin-4-ylamino]-bicyclo[2.2.1]hept-5-ene-2-carboxylic acid amide]
IC50 [1, 5]: < 100 nM | IC50 [2, 6]: > 10000 nM

Molecule: CNC(=O)c1cc(C)ccc1Nc1nc(Nc2ccc3c(c2)CCN(CCOC)CC3)ncc1Cl [Example 308, 2-{5-Chloro-2-[3-(2-methoxy-ethyl)-2,3,4,5-tetrahydro-1H-benzo[d]azepin-7-ylamino]-pyrimidin-4-ylamino}-5,N-dimethyl-benzamide]
IC50 [1, 5]: < 100 nM | IC50 [2, 6]: < 100 nM

Molecule: COCCN1CCc2ccc(Nc3ncc(Cl)c(NC4C5C=CC(C5)C4C(N)=O)n3)cc2CC1 (stereo not drawn) [Example 310, (2-exo,3-exo)-3-{5-Chloro-2-[3-(2-methoxy-ethyl)-2,3,4,5-tetrahydro-1H-benzo[d]azepin-7-ylamino]-pyrimidin-4-ylamino}-bicyclo[2.2.1]hept-5-ene-2-carboxylic acid amide]
IC50 [1, 5]: < 100 nM | IC50 [2, 6]: 100 to 1000 nM

Molecule: CS(=O)(=O)Nc1ccccc1Nc1nc(Nc2ccc3c(c2)CNCCS3)ncc1Cl [Example 518]
IC50 [1, 3]: < 100 nM | IC50 [2, 4]: 1000 to 10000 nM

More lines, now with the values ahead:

IC50 [1, 3]: < 100 nM | IC50 [2, 4]: > 10000 nM
Molecule: COc1cc2c(cc1Nc1ncc(F)c(Nc3ccc(N4CCOCC4)cc3OC)n1)CCN(CC(N)=O)CC2 [Example 810, 2-{7-[5-Fluoro-4-(2-methoxy-4-morpholin-4-yl-phenylamino)-pyrimidin-2-ylamino]-8-methoxy-1,2,4,5-tetrahydro-benzo[d]azepin-3-yl}-acetamide]

IC50 [1, 3]: < 100 nM | IC50 [2, 4]: > 10000 nM
Molecule: COc1cc2c(cc1Nc1ncc(Cl)c(Nc3ccccc3S(=O)(=O)C(C)C)n1)CCN(CC(C)(F)F)CC2 [Example 828, 5-Chloro-N*2*-[3-(2,2-difluoro-propyl)-8-methoxy-2,3,4,5-tetrahydro-1H-benzo[d]azepin-7-yl]-N*4*-[2-(propane-2-sulfonyl)-phenyl]-pyrimidine-2,4-diamine]

IC50 [1, 3]: < 100 nM | IC50 [2, 4]: 1000 to 10000 nM
Molecule: COc1c(Nc2ncc(Cl)c(Nc3ccccc3-n3cccn3)n2)ccc2c1CCC(N1CCOCC1)CC2 (centres unmarked) [Example 901, 5-Chloro-N*2*-(1-methoxy-7-morpholin-4-yl-6,7,8,9-tetrahydro-5H-benzocyclohepten-2-yl)-N*4*-(2-pyrazol-1-yl-phenyl)-pyrimidine-2,4-diamine]

IC50 [1, 9]: > 10000 nM | IC50 [2, 10]: 1000 to 10000 nM
Molecule: COc1cccc(C(=O)NCCC#N)c1Nc1nc(Nc2ccc3c(c2)C(C)(C)CCC(=O)N3)ncc1Cl [Example 1061, 2-[5-Chloro-2-(5,5-dimethyl-2-oxo-2,3,4,5-tetrahydro-1H-benzo[b]azepin-7-ylamino)-pyrimidin-4-ylamino]-N-(2-cyano-ethyl)-3-methoxy-benzamide]

IC50 [1, 9]: < 100 nM | IC50 [2, 10]: 1000 to 10000 nM
Molecule: COc1cc2c(cc1Nc1ncc(Cl)c(Nc3ccccc3S(=O)(=O)C(C)C)n1)CCN(CCS(C)(=O)=O)CC2 [Example 1164, 5-Chloro-N*2*-[3-(2-methanesulfonyl-ethyl)-8-methoxy-2,3,4,5-tetrahydro-1H-benzo[d]azepin-7-yl]-N*4*-[2-(propane-2-sulfonyl)-phenyl]-pyrimidine-2,4-diamine]

IC50 [1, 3]: 1000 to 10000 nM | IC50 [2, 4]: > 10000 nM
Molecule: COCCOC(=O)C1[C@@H]2C=C[C@@H](C2)[C@H]1Nc1nc(Nc2ccc3c(c2OC)CC[C@@H](N2CCOCC2)CC3)ncc1Cl (single isomer, unassigned) [Example 904]

IC50 [1, 9]: < 100 nM | IC50 [2, 10]: 1000 to 10000 nM
Molecule: COc1cc2c(cc1Nc1ncc(Cl)c(Nc3ccccc3S(=O)(=O)C(C)C)n1)CCN(CC(=O)N(C)C)CC2 [Example 1151, 2-(7-{5-Chloro-4-[2-(propane-2-sulfonyl)-phenylamino]-pyrimidin-2-ylamino}-8-methoxy-1,2,4,5-tetrahydro-benzo[d]azepin-3-yl)-N,N-dimethyl-acetamide]

IC50 [1, 7]: < 100 nM | IC50 [2, 8]: > 10000 nM
Molecule: COc1cc2c(cc1Nc1ncc(Cl)c(Nc3ccccc3S(=O)(=O)C(C)C)n1)CCN(CC(=O)N1CCOCC1)CC2 [Example 1536, 2-(7-{5-Chloro-4-[2-(propane-2-sulfonyl)-phenylamino]-pyrimidin-2-ylamino}-8-methoxy-1,2,4,5-tetrahydro-3-benzazepin-3-yl)-1-morpholin-4-yl-ethanone]

IC50 [1, 7]: < 100 nM | IC50 [2, 8]: 100 to 1000 nM
Molecule: CCN1CCNC(=O)c2ccc(Nc3ncc(Cl)c(Nc4ccccc4-c4nccn4C)n3)cc21 [Example 1453, 8-{5-Chloro-4-[2-(1-methyl-1H-imidazol-2-yl)-phenylamino]-pyrimidin-2-ylamino}-1-ethyl-1,2,3,4-tetrahydro-benzo[e][1,4]diazepin-5-one]

IC50 [1, 7]: 100 to 1000 nM | IC50 [2, 8]: < 100 nM
Molecule: CNC(=O)c1cccc(F)c1Nc1nc(Nc2ccc3c(c2)NCCCC3(C)C)ncc1Cl [Example 1611, 2-[5-Chloro-2-(5,5-dimethyl-2,3,4,5-tetrahydro-1H-benzo[b]azepin-8-ylamino)-pyrimidin-4-ylamino]-3-fluoro-N-methyl-benzamide]

IC50 [1, 3]: 100 to 1000 nM | IC50 [2, 4]: > 10000 nM
Molecule: COCCn1ccnc1-c1ccccc1Nc1nc(Nc2ccc3c(c2)C(C)(C)CCC(=O)N3)ncc1Cl [Example 980, 7-(5-Chloro-4-{2-[1-(2-methoxy-ethyl)-1H-imidazol-2-yl]-phenylamino}-pyrimidin-2-ylamino)-5,5-dimethyl-1,3,4,5-tetrahydro-benzo[b]azepin-2-one]

IC50 [1, 7]: < 100 nM | IC50 [2, 8]: < 100 nM
Molecule: CNC(=O)c1cccc(F)c1Nc1nc(Nc2ccc3c(c2)-n2ccnc2CCC3)ncc1Cl [Example 1837, 2-[5-Chloro-2-(5,6-dihydro-4H-3,10b-diaza-benzo[e]azulen-9-ylamino)-pyrimidin-4-ylamino]-3-fluoro-N-methyl-benzamide]

IC50 [1, 7]: 1000 to 10000 nM | IC50 [2, 8]: > 10000 nM
Molecule: CNC(=O)c1ccccc1N(C)c1nc(Nc2ccc3c(c2)CC(=O)N(C)CC3)ncc1F [Example 1824, 2-{[5-Fluoro-2-(3-methyl-4-oxo-2,3,4,5-tetrahydro-1H-benzo[d]azepin-7-ylamino)-pyrimidin-4-yl]-methyl-amino}-N-methyl-benzamide]
